Source: patent publication US4576951A, “Proglumide, pharmaceutical preparations and compositions including it for use in human pain relief” (priority 1983, dated 1986)
Like-named read-outs stand apart in the source and are kept apart here.

Columns and labels:
[1] = Tail Flick Test after transcutaneous shock: analgesic activity of endogenous opiates; type: in vivo, rats
Method: Influence of proglumide on the analgesic activity of endogenous opiates released under transcutaneous shock in rats measured by the Tail Flick Test The method is that described by Lewis et al. (J. Naurosc. 1, 358 (1981)). Male rats having a weight of about 200 g, which have not been fasting, are used. The animals are stressed by the application to the front leg of a 60 Hz-2.5 mA current in pulses of a duration of one second every five seconds for 20 minutes. This stress regime causes the release of endogenous opiates.

[2] = type: in vivo, rats
Method: The method is that described by Harris et al. (J. Pharmcol. Exp. Ther. 143 (1964) 141-148).
Male rats are used which have a weight of about 150-200 g and which have not been fasting. A point is chosen on the tail and this is irradiated by a heat source (75° C.) and the time (in seconds) for which the animal remains without moving its tail is measured.
A maximum period of time under the heat source of 8 seconds is chosen after which the animal is, in any case, removed in order to avoid tissue damage. The measurement is effected before (controls) and after treatment with the drugs. […] The percentage variation is calculated for each individual animal by the following formula: [formula] (time measurements are in seconds)
The measurements are carried out 10, 20, 30, 45, 60 and 90 minutes after treatment with the analgesics.

[3] = Hot plate test: potentiation of analgesic activity of opiates; type: in vivo, rats; details: proglumide 5 mg/kg s.c.
Method: The method is that described by Eddy et al. (J. Pharmac. Exp. Therm. 107, 385 (1953)).
Groups of five male rats having a weight of about 150 g and which have not been fasting are used.
The animals are placed on a metal plate which is on the bottom of a transparent cylinder heated to 55°±1° C. by an azeotropic boiling mixture (1:1 acetone-ethyl formate). The time which passes between the moment at which the animal is placed on the hot plate and the moment at which it licks its feet or tries to jump out of the cylinder is defined as the reaction time. The control reaction time is measured 10 and 5 minutes before the administration of the drugs and 10, 20, 30, 45, 60, 90 minutes afterwards. The animals are left on the plate for a maximum period of 30 seconds. The response to the administration of the product is considered positive if at least a doubling of the normal reaction time is seen. The results obtained are given in Table 2 which records the groups treated, the doses administered and the stay times on the plate expressed as the number of positive responses over the number treated.

in vivo = details: mouse, sc
Method: The drug (or drugs) under examination was administered sub-cutaneously. The animals were kept under observation for 15 days after the administration.
Ten animals were used for each dose.

[4] = type: in vivo, rats; remark: listed apart in the source
Method: Activity of proglumide as an antagonist to the tolerance induced by opiates
Groups of five male rats having a weight of about 200-250 g were used.
The determination of the pain threshold was effected 1, 3, 6, 9 and 12 hours after the first treatment by the Tail Flick test.
The data given in Table 5 indicate the percentage variations in the latency (appearance of pain) before and after treatment with the drugs.

[5] = Potentiation of analgesic effect of enkephalinamide (DALA) i.c.v. (Tail Flick test); type: in vivo, rats
Method: Potentiation of the analgesic activities of enkephalins induced by proglumide
In order to check one of the possible mechanisms for the action of proglumide, that is its possible inhibition of the enzymatic degradation of endogenous enkephalins, the following experiment was carried out:
A cannula was implanted in the right lateral ventricle of male rats having a weight of 150-200 g (groups of five animals were used) in order to allow the intracerebroventricular (I.C.V.) administration of drugs according to the method of Noble et al (Life Science 6, (1970) 281-291). […]

[6] = 1 min, proglumide 20 mg/kg, no stress
[7] = 1 min, stress + proglumide 1 mg/kg
[8] = 1 min, stress + proglumide 5 mg/kg
[9] = 1 min, stress + proglumide 20 mg/kg
[10] = 5 min, proglumide 20 mg/kg, no stress
[11] = 5 min, stress + proglumide 1 mg/kg
[12] = 5 min, stress + proglumide 5 mg/kg
[13] = 5 min, stress + proglumide 20 mg/kg
[14] = 10 min, proglumide 20 mg/kg, no stress
[15] = 10 min, stress + proglumide 1 mg/kg
[16] = 10 min, stress + proglumide 5 mg/kg
[17] = 10 min, stress + proglumide 20 mg/kg
[18] = 15 min, proglumide 20 mg/kg, no stress
[19] = 15 min, stress + proglumide 1 mg/kg
[20] = 15 min, stress + proglumide 5 mg/kg
[21] = 15 min, stress + proglumide 20 mg/kg

CCCN(CCC)C(=O)C(CCC(=O)O)NC(=O)c1ccccc1 (racemic) [Proglumide, D,L-4-benzamido-N, N-dipropylglutaramic acid]
Average latency (tail flick) [1, 6]: 3.66 ± 0.25 s
t (vs control stress) [1, 6]: 6.90
t (vs control) [1, 6]: 0.37
t (vs control stress) [1, 7]: 0.92
t (vs control) [1, 7]: 5.21
t (vs control stress) [1, 8]: 0.87
t (vs control) [1, 8]: 4.25
t (vs control stress) [1, 9]: 6.14
t (vs control) [1, 9]: 9.54
Average latency (tail flick) ([1]; 1 min after shock, stress + proglumide 1 mg/kg): 6.37 ± 0.45 s
Average latency (tail flick) ([1]; 1 min after shock, stress + proglumide 5 mg/kg): 6.33 ± 0.57 s
Average latency (tail flick) ([1]; 1 min after shock, stress + proglumide 20 mg/kg): 13.59 ± 1.0 s
Average latency (tail flick) [1, 10]: 3.59 ± 0.20 s
t (vs control stress) [1, 10]: 5.88
t (vs control) [1, 10]: 1.36
t (vs control stress) [1, 11]: 0.69
t (vs control) [1, 11]: 5.18
t (vs control stress) [1, 12]: 2.74
t (vs control) [1, 12]: 5.62
t (vs control stress) [1, 13]: 3.90
t (vs control) [1, 13]: 7.29
Average latency (tail flick) ([1]; 5 min after shock, stress + proglumide 1 mg/kg): 6.55 ± 0.43 s
Average latency (tail flick) ([1]; 5 min after shock, stress + proglumide 5 mg/kg): 8.5 ± 0.76 s
Average latency (tail flick) ([1]; 5 min after shock, stress + proglumide 20 mg/kg): 9.16 ± 0.67 s
Average latency (tail flick) [1, 14]: 3.57 ± 0.16 s
t (vs control stress) [1, 14]: 2.57
t (vs control) [1, 14]: 0.12
t (vs control stress) [1, 15]: 0.86
t (vs control) [1, 15]: 1.83
t (vs control stress) [1, 16]: 0.72
t (vs control) [1, 16]: 2.98
t (vs control stress) [1, 17]: 5.01
t (vs control) [1, 17]: 7.02
Average latency (tail flick) ([1]; 10 min after shock, stress + proglumide 1 mg/kg): 4.07 ± 0.22 s
Average latency (tail flick) ([1]; 10 min after shock, stress + proglumide 5 mg/kg): 4.66 ± 0.32 s
Average latency (tail flick) ([1]; 10 min after shock, stress + proglumide 20 mg/kg): 6.94 ± 0.44 s
Average latency (tail flick) [1, 18]: 3.57 ± 0.15 s
t (vs control stress) [1, 18]: 0.04
t (vs control) [1, 18]: 1.49
t (vs control stress) [1, 19]: 0.43
t (vs control) [1, 19]: 0.82
t (vs control stress) [1, 20]: 0.98
t (vs control) [1, 20]: 0.11
t (vs control stress) [1, 21]: 3.34
t (vs control) [1, 21]: 2.89
Average latency (tail flick) ([1]; 15 min after shock, stress + proglumide 1 mg/kg): 3.68 ± 0.16 s
Average latency (tail flick) ([1]; 15 min after shock, stress + proglumide 5 mg/kg): 3.81 ± 0.16 s
Average latency (tail flick) ([1]; 15 min after shock, stress + proglumide 20 mg/kg): 4.78 ± 0.32 s
effect on the analgesic effect of endogenous enkephalins ([1]; proglumide 5 mg/kg): can increase (in one case significantly)
effect on the analgesic effect of endogenous enkephalins ([1]; proglumide 20 mg/kg): significantly more marked both in intensity and duration
ED50 for potentiation of the analgesic effect (proglumide increasing effect by 50%) ([2]; rat, in vivo, ip): 4.15 mg/kg
ED50 for potentiation of the analgesic effect (proglumide increasing effect by 50%) ([2]; strengthening of propoxyphene): 2.26 mg/kg
increase of the analgesic effect of morphine and methadone [3]: at least double
LD50 at 360 h (in vivo): > 5000 mg/kg
antagonism of development of tolerance ([4]; proglumide 20 mg/kg): highly significant
effect on development of tolerance induced by morphine ([4]; rat, in vivo, ip): opposes the development of tolerance
% variation in the latency to pain ([5]; 5 min, alone i.c.v.: proglumide 1 or DALA 10 μg/kg): 18.06 ± 10.8%
% variation in the latency to pain ([5]; 15 min, alone i.c.v.: proglumide 1 or DALA 10 μg/kg): 2.18 ± 10.6%
% variation in the latency to pain ([5]; 30 min, alone i.c.v.: proglumide 1 or DALA 10 μg/kg): 18.36 ± 5.9%
% variation in the latency to pain ([5]; 45 min, alone i.c.v.: proglumide 1 or DALA 10 μg/kg): -10.94 ± 14.5%
% variation in the latency to pain ([5]; 60 min, alone i.c.v.: proglumide 1 or DALA 10 μg/kg): -5.58 ± 8.1%
% variation in the latency to pain ([5]; 90 min, alone i.c.v.: proglumide 1 or DALA 10 μg/kg): 13.3 ± 8.4%
Average (0 → 90) % variation in the latency to pain ([5]; alone i.c.v.: proglumide 1 or DALA 10 μg/kg): 5.9 ± 5.12%
action on the analgesic effect of the enkephalinamide (DALA) ([5]; i.c.v.): potentiating action of proglumide on the analgesic effect of the enkephalinamide (DALA) both in intensity and duration
significance of potentiating action on DALA analgesia ([5]; proglumide 1 μg/kg): highly significant
